In patent US9981963B2, “3-(1H-pyrazol-4-yl)-1H-pyrrolo[2,3-c]pyridine derivatives as NIK inhibitors” (Janssen Pharmaceutica NV, priority 2013, dated 2018):

Assays:
JJN-3 cells = experiment: Biological Assay C: antiproliferative activity on JJN-3 cells (CellTiter-Glo); format: cell-based; details: Homo sapiens, 72 hr of treatment, averaged values
Description: (§1) Determination of Antiproliferative Activity on LP-1, L-363 and JJN-3 Cells
(§2) All compounds tested were dissolved in DMSO and further dilutions were made in culture medium. Final DMSO concentration was 0.3% (v/v) in cell proliferation assays. Viability was assessed using CellTiter-Glo cell viability assay kit (Promega). The human LP-1, L-363 and JJN-3 cells (DSMZ) were cultured in RPMI 1640 medium supplemented with 2 mM L-glutamine, and 10% fetal calf serum (PAA). Cells were routinely kept as suspension cells at 37° C. in a humidified 5% CO2 atmosphere. Cells were passaged at a seeding density of 0.2×10^6/ml twice a week. Cells were seeded in black tissue culture treated 96-well plates (Perkin Elmer). Densities used for plating ranged from 2,000 to 6,000 cells per well in a total volume of 75 μl medium. After twenty four hours, drugs and/or solvents were added (25 μl) to a final volume of 100 μl. Following 72 hr of treatment plates were removed from the incubator and allowed to equilibrate to room temperature for approx 10 min. 100 μl CellTiter-Glo reagent was added to each well that was then covered (Perkin Elmer Topseal) and shaken on plate shaker for 10 min. Luminescence was measured on a HTS Topcount (Perkin Elmer). Within an experiment, the results for each treatment were the mean of 2 replicate wells. For initial screening purposes, compounds were tested using a 9 point dilution curve (serial 1:3 dilutions). For each experiment, controls (containing no drug) and a blank incubation (containing cells read at the time of compound addition) were run in parallel. The blank value was subtracted from all control and sample values. For each sample, the mean value for cell growth (in relative light units) was expressed as a percentage of the mean value for cell growth of the control.

[1] = biological target: T1, Recombinant Human NF-kappaB-inducing Kinase (NIK/MAP3K14) (Homo sapiens (Human), UniProt Q99558); experiment: Biological Assay A2: inhibition of auto-phosphorylation of recombinant human NIK/MAP3K14 (AlphaScreen); format: biochemical; details: 25 microM ATP, 0.2 nM GST-tagged NIK/MAP3K14, 1 h at 25° C., averaged values, read-out: Alpha-Screen IC50
T1 sequence (Q99558 whole entry): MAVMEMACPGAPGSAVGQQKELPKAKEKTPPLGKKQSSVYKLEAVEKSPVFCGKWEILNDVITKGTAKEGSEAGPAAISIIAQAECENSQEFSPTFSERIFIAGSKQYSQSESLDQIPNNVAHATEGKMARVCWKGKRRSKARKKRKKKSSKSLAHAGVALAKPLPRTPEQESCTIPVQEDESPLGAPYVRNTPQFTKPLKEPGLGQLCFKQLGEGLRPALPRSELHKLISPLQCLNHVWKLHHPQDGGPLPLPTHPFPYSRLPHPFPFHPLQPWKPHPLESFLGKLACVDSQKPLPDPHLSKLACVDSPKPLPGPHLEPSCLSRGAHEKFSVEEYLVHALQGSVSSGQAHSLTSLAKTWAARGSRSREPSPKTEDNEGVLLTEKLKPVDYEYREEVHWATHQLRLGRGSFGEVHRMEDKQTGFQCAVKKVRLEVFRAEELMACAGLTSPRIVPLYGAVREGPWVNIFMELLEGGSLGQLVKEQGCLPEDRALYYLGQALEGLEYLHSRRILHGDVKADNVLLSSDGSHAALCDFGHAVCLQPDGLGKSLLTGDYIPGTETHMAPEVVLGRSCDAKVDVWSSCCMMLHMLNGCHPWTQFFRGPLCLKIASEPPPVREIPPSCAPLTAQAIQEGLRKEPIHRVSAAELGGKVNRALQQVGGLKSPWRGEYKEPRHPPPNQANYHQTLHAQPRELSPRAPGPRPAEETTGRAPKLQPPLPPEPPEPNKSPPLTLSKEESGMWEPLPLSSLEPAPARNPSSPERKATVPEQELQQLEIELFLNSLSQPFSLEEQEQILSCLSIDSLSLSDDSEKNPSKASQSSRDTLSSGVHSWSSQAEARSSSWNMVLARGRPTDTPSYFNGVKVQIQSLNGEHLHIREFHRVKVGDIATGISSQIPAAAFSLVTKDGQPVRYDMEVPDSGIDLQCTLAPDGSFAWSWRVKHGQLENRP
Description: Inhibition of Auto-phosphorylation of Recombinant Human NF-kappaB-inducing Kinase (NIK/MAP3K14) Activity (AlphaScreen®)
NIK/MAP3K14 auto-phosphorylation activity was measured using the AlphaScreen® (αscreen) format (Perkin Elmer). All compounds tested were dissolved in dimethyl sulfoxide (DMSO) and further dilutions were made in assay buffer. Final DMSO concentration was 1% (v/v) in assays. Assay buffer was 50 mM Tris pH 7.5 containing 1 mM EGTA (ethylene glycol tetraacetic acid), 1 mM DTT (dithiothreitol), 0.1 mM Na3VO4, 5 mM MgCl2, 0.01% Tween® 20. Assays were carried out in 384 well Alphaplates (Perkin Elmer). Incubations consisted of compound, 25 microM Adenosine-5′-triphosphate (ATP), and 0.2 nM NIK/MAP3K14. Incubations were initiated by addition of GST-tagged NIK/MAP3K14 enzyme, carried out for 1 h at 25° C. and terminated by addition of stop buffer containing anti-phospho-IKK Ser176/180 antibody. Protein A Acceptor and Glutathione-Donor beads were added before reading using an EnVision® Multilabel Plate Reader (Perkin Elmer). Signal obtained in the wells containing blank samples was subtracted from all other wells and IC50's were determined by fitting a sigmoidal curve to % inhibition of control versus Log10 compound concentration.

L-363 cells = experiment: Biological Assay C: antiproliferative activity on L-363 cells (CellTiter-Glo); format: cell-based; details: Homo sapiens, 72 hr of treatment, averaged values
Description: as §1, §2

LP-1 cells = experiment: Biological Assay C: antiproliferative activity on LP-1 cells (CellTiter-Glo); format: cell-based; details: Homo sapiens, 72 hr of treatment, averaged values
Description: as §1, §2

[2] = tested on: P-IKKα levels in L363 cells; experiment: Biological Assay B: effect of compounds on P-IKKα levels in L363 cells; format: cell-based; details: Homo sapiens, L-363; L363 cells with BAFF, 2 hr treatment; averaged values; read-out: IKKα Cellular IC50
Description: Effect of Compounds on P-IKKα Levels in L363 Cells
All compounds tested were dissolved in DMSO and further dilutions were made in culture medium. Final DMSO concentration was 1% (v/v) in cell assays. The human L363 cells (ATCC) were cultured in RPMI 1640 medium supplemented with GlutaMax and 10% fetal calf serum (PAA). Cells were routinely maintained at densities of 0.2×10^6 cells per ml-1×10^6 cells per ml at 37° C. in a humidified 5% CO2 atmosphere. Cells were passaged twice a week splitting back to obtain the low density. Cells were seeded in 96 well plates (Nunc 167008) at 2×10^6 per ml media in a volume of 75 μl per well plus 25 μl 1 μg/ml recombinant human B-cell activating factor (BAFF/BLyS/TNFSF13B). Seeded cells were incubated at 37° C. in a humidified 5% CO2 atmosphere for 24 hr. Drugs and/or solvents were added (20 μl) to a final volume of 120 μl. Following 2 hr treatment plates were removed from the incubator and cell lysis was achieved by the addition of 30 μl 5× lysis buffer followed by shaking on a plate shaker at 4° C. for 10 min. At the end of this incubation lysed cells were centrifuged at 800×g for 20 min at 4° C. and the lysate was assessed for P-IKKα levels by sandwich immuno-assay carried out in anti-rabbit antibody coated Mesoscale plates. Within an experiment, the results for each treatment were the mean of 2 replicate wells. For initial screening purposes, compounds were tested using an 8 point dilution curve (serial 1:3 dilutions). For each experiment, controls (containing MG132 and BAFF but no test drug) and a blank incubation (containing MG132 and BAFF and 10 μM ADS125117, a test concentration known to give full inhibition) were run in parallel. The blank incubation value was subtracted from all control and sample values. To determine the IC50 a sigmoidal curve was fitted to the plot of % inhibition of control P-IKKα levels versus Log10 compound concentration.

[3] = biological target: T1, Recombinant Human NF-kappaB-inducing Kinase (NIK/MAP3K14); experiment: Biological Assay A: inhibition of recombinant human NIK/MAP3K14 activity (MSD, MBP substrate); details: 25 μM ATP, 10 nM NIK/MAP3K14, 1 h at 25° C.; averaged over all measurements on all batches; read-out: Biochemical (MSD MBP) IC50
Description: Inhibition of Recombinant Human NF-kappaB-inducing Kinase (NIK/MAP3K14) Activity
Assay buffer was 50 mM Tris pH 7.5 containing 1 mM EGTA (ethylene glycol tetraacetic acid), 1 mM DTT (dithiothreitol), 0.1 mM Na3VO4, 5 mM MgCl2, 0.01% Tween® 20. Assays were carried out in 384 well Mesoscale high binding plates which had been coated with myelin basic protein (MBP) and blocked with bovine serum albumin to prevent non-specific protein binding. All compounds tested were dissolved in dimethyl sulfoxide (DMSO) and further dilutions were made in assay buffer. Final DMSO concentration was 1% (v/v) in assays. Incubations consisted of compound (1% DMSO in control and blank wells), 25 μM Adenosine-5′-triphosphate (ATP), and 10 nM NIK/MAP3K14 substituting enzyme with buffer in the blank wells. Incubations were carried out for 1 h at 25° C. and were followed by washing and sequential incubation with rabbit anti-phospho-MBP and anti-rabbit Ig Sulfotag antibody before reading bound Sulfotag on a Mesoscale Discovery. Signal obtained in the wells containing blank samples was subtracted from all other wells and IC50's were determined by fitting a sigmoidal curve to % inhibition of control versus Log10 compound concentration.

Compound | EC50 (JJN-3 cells) [nM] | IC50 [1] [nM] | EC50 (L-363 cells) [nM] | EC50 (LP-1 cells) [µM] | IC50 [2] [nM] | IC50 [3] [nM]
CCn1cc(-c2cn[nH]c2)c2cc(C#CC(C)(O)C3CC3)ncc21 (single isomer, unassigned) [Compound 49] | 1300 | 14 | 861 | 1.7 |  | 
CC(C)(O)C#Cc1cc2c(-c3cn[nH]c3)c[nH]c2cn1 [Compound 1] | 3340 | 53 | 6980 | > 30 | 736 | 60
CCn1cc(-c2cn[nH]c2)c2cc(C#CC(C)(C)O)ncc21 [Compound 9] | 526 |  | 553 | 3.06 | 89 | 9
CC(C)CS(=O)(=O)n1cc(-c2cn[nH]c2)c2cc(C#CC(C)(C)O)ncc21 [Compound 26] | 3870 | 141 | 3330 | 5.02 |  | 
CC(C)(O)C#Cc1cc2c(-c3cn[nH]c3)cn(S(=O)(=O)Cc3ccccc3)c2cn1 [Compound 27] |  | 290 |  |  |  | 
CC(C)(O)C#Cc1cc2c(-c3cn[nH]c3)cn(CC(F)(F)F)c2cn1 [Compound 28] | 1530 | 43 | 1020 | 7.38 | 338 | 
CC(C)(O)C#Cc1cc2c(-c3cn[nH]c3)cn(C3CCC(CO)CC3)c2cn1 (stereo not shown) [Compound 29] | 4170 | 4 | 2430 | 27.2 | 632 | 
CC(C)(O)C#Cc1cc2c(-c3cn[nH]c3)cn(C3CCN(CC(F)(F)F)CC3)c2cn1 [Compound 35] | 820 | 23 | 439 | 2.67 |  | 
CC(C)(O)C#Cc1cc2c(-c3cn[nH]c3)cn(C3CCN(CCF)CC3)c2cn1 [Compound 36] | 1620 | 63 | 565 | 9.59 |  | 
CCn1cc(-c2c[nH]nc2NC)c2cc(C#CC(C)(C)O)ncc21 [Compound 37] | 5660 | 274 | 4910 | > 30 |  | 
CCn1cc(-c2c[nH]nc2Cl)c2cc(C#CC(C)(C)O)ncc21 [Compound 38] | 1660 | 13 | 1320 | 3.2 |  | 
CCn1c(C#N)c(-c2cn[nH]c2)c2cc(C#CC(C)(C)O)ncc21 [Compound 39] | 4610 | 47 | 3920 | 8 |  | 
[2H]c1n[nH]c([2H])c1-c1cn(CC)c2cnc(C#CC(C)(C)O)cc12 [Compound 40] | 547 | 38 | 260 | 1.95 |  | 
CN1CCC(n2cc(-c3c[nH]nc3Cl)c3cc(C#CC(C)(C)O)ncc32)CC1 [Compound 41] | 1310 | 79 | 478 | 6.11 |  | 
[2H]c1n[nH]c([2H])c1-c1cn([C@H]2CCN(CCC(F)(F)F)C2)c2cnc(C#CC(O)(C([2H])([2H])[2H])C([2H])([2H])[2H])cc12 [Compound 42] | 2220 | 63 | 1030 | 2.67 |  | 
[2H]c1n[nH]c([2H])c1-c1cn(C2CCN(C3CC3)CC2)c2cnc(C#CC(O)(C([2H])([2H])[2H])C([2H])([2H])[2H])cc12 [Compound 43] | 354 | 44 | 127 | 0.976 |  | 
[2H]c1n[nH]c([2H])c1-c1cn(C2CCN(C)CC2)c2c(C)nc(C#CC(O)(C([2H])([2H])[2H])C([2H])([2H])[2H])cc12 [Compound 44] | 391 | 84 | 269 | 1.54 |  | 
[2H]C([2H])([2H])C(O)(C#Cc1cc2c(-c3c[nH]nc3Cl)cn(C3CCN(C)CC3)c2c(C)n1)C([2H])([2H])[2H] [Compound 45] | 415 | 111 | 277 | 1.45 |  | 
CCn1cc(-c2cn[nH]c2)c2cc(C#CC(C)O)ncc21 (stereo not shown) [Compound 46] | 530 | 13 | 343 | 0.709 |  | 
CCn1cc(-c2cn[nH]c2)c2cc(C#CC(C)(O)c3cc(C)on3)ncc21 (stereo not shown) [Compound 48] | 621 | 14 | 350 | 6.09 |  | 
